In US20010047099A1, “4-aminopicolinates and their use as herbicides” (priority 2000, published 2001):

Experiments:
[1] = tested on: cocklebur (Xanthium strumarium); experiment: Postemergence herbicidal activity; type: in vivo; conditions: Table 1, visual, after 2 weeks
Method: (§1) Seeds of the desired test plant species were planted in Grace-Sierra MetroMix® 306 planting mixture, which typically has a pH of 6.0 to 6.8 and an organic matter content of about 30 percent, in plastic pots with a surface area of 64 square centimeters. When required to ensure good germination and healthy plants, a fungicide treatment and/or other chemical or physical treatment was applied. The plants were grown for 7-21 days in a greenhouse with an approximate 15 hr photoperiod which was maintained at about 23-29° C. during the day and 22-28° C. during the night. Nutrients and water were added on a regular basis and supplemental lighting was provided with overhead metal halide 1000-Watt lamps as necessary. The plants were employed for testing when they reached the first or second true leaf stage.
(§2) A weighed amount, determined by the highest rate to be tested, of each test compound was placed in a 20 mL glass vial and was dissolved in 4 mL of a 97:3 v/v (volume/volume) mixture of acetone and dimethyl sulfoxide (DMSO) to obtain concentrated stock solutions. […] The concentrated stock solutions obtained were diluted with an aqueous mixture containing acetone, water, isopropyl alcohol, DMSO, Atplus 411F crop oil concentrate, and Triton X-155 surfactant in a 48.5:39:10:1.5:1.0:0.02 v/v ratio to obtain spray solutions of known concentration. The solutions containing the highest concentration to be tested were prepared by diluting 2 mL aliquots of the stock solution with 13 mL of the mixture and lower concentrations were prepared by serial dilution of the stock solution. Approximately 1.5 mL aliquots of each solution of known concentration were sprayed evenly onto each of the test plant pots using a DeVilbiss atomizer driven by compressed air pressure of 2 to 4 psi ([…]) to obtain thorough coverage of each plant. Control plants were sprayed in the same manner with the aqueous mixture. In this test an application rate of 1 ppm results in the application of approximately 1 g/Ha.
(§3) The treated plants and control plants were placed in a greenhouse as described above and watered by sub-irrigation to prevent wash-off of the test compounds. After 2 weeks the condition of the test plants as compared with that of the untreated plants was determined visually and scored on a scale of 0 to 100 percent where 0 corresponds to no injury and 100 corresponds to complete kill.

[2] = tested on: wild buckwheat (Polygonum convolvulus); experiment: Postemergence herbicidal activity; type: in vivo; conditions: Table 1, visual, after 2 weeks
Method: as §1, §2, §3

[3] = tested on: chickweed (Stellaria media); experiment: Postemergence herbicidal activity; type: in vivo; conditions: Table 1, visual, after 2 weeks
Method: as §1, §2, §3

[4] = tested on: morningglory (Ipomoea hederacea); experiment: Preemergence herbicidal activity; type: in vivo; conditions: Table 6 (headed Post-emergent; text: preemergence), after 3 weeks; for pest or weed control at 280 ppm: rate 280 ppm
Source text: (§4) Seeds of the desired test plant species were planted in a soil matrix prepared by mixing a loam soil (43 percent silt, 19 percent clay, and 38 percent sand, with a pH of about 8.1 and an organic matter content of bout 1.5 percent) and sand in a 70 to 30 ratio. The soil matrix was contained in plastic pots with a surface area of 113 square centimeters. When required to ensure good germination and healthy plants. a fungicide treatment and/or other chemical or physical treatment was applied.
(§5) A weighed amount, determined by the highest rate to be tested, of each test compound was placed in a 20 mL glass vial and was dissolved in 4 mL of a 97:3 v/v (volume/volume) mixture of acetone and dimethyl sulfoxide to obtain concentrated stock solutions. […] The stock solutions obtained were diluted with a 99.9:0.1 mixture of water and Tween® […] surfactant to obtain application solutions of known concentration. The solutions containing the highest concentration to be tested were prepared by diluting 2 mL aliquots of the stock solution with 15 mL of the mixture and lower concentrations were prepared by serial dilution of the stock solution. A 2.5 mL aliquot of each solution of known concentration was sprayed evenly onto the soil surface (113 sq. cm) of each seeded pot using a Cornwall 5.0 mL glass syringe fitted with a TeeJet TN-3 hollow cone nozzle to obtain thorough coverage of the soil in each pot. Control pots were sprayed in the same manner with the aqueous mixture.
(§6) The treated pots and control pots were placed in a greenhouse maintained with an approximate 15 hr photoperiod and temperatures of about 23-29° C. during the day and 22-28° C. during the night. Nutrients and water were added on a regular basis and supplemental lighting was provided with overhead metal halide 1000-Watt lamps as necessary. The water was added by top-irrigation. After 3 weeks the condition of the test plants that germinated and grew as compared with that of the untreated plants that germinated and grew was determined visually and scored on a scale of 0 to 100 percent where 0 corresponds to no injury and 100 corresponds to complete kill or no germination.

[5] = tested on: pigweed (Amaranthus retroflexus); experiment: Preemergence herbicidal activity; type: in vivo; conditions: Table 6 (headed Post-emergent; text: preemergence), after 3 weeks; for pest or weed control at 280 ppm: rate 280 ppm
Source text: as §4, §5, §6

[6] = tested on: velvetleaf (Abutilon theophrasti); experiment: Preemergence herbicidal activity; type: in vivo; conditions: Table 6 (headed Post-emergent; text: preemergence), after 3 weeks; for pest or weed control at 280 ppm: rate 280 ppm
Source text: as §4, §5, §6

[7] = Xanthium strumarium, post-emergence, 336 h, rate 250 ppm, read-out: Post-emergent % Control XANST
[8] = Fallopia convolvulus, post-emergence, 336 h, rate 250 ppm, read-out: Post-emergent % Control POLCO
[9] = Stellaria media, post-emergence, 336 h, rate 250 ppm, read-out: Post-emergent % Control STEME
[10] = Ipomoea, 504 h, read-out: % Control IPOHE
[11] = Amaranthus retroflexus, 504 h, read-out: % Control AMARE
[12] = Abutilon theophrasti, 504 h, read-out: % Control ABUTH
[13] = Ipomoea, 504 h, rate 560 ppm, read-out: % Control IPOHE
[14] = Amaranthus retroflexus, 504 h, rate 560 ppm, read-out: % Control AMARE
[15] = Abutilon theophrasti, 504 h, rate 560 ppm, read-out: % Control ABUTH

Structure (SMILES) | melting point | pest or weed control at 250 ppm [1, 7] [%] | pest or weed control at 250 ppm [2, 8] [%] | pest or weed control at 250 ppm [3, 9] [%] | pest or weed control at 280 ppm [4, 10] [%] | pest or weed control at 280 ppm [5, 11] [%] | pest or weed control at 280 ppm [6, 12] [%] | pest or weed control at 560 ppm [4, 13] [%] | pest or weed control at 560 ppm [5, 14] [%] | pest or weed control at 560 ppm [6, 15] [%] | further results
CCCCCOC(=O)c1nc(Cl)cc(N)c1Cl [Compound 8, n-pentyl 4-amino-3,6-dichloropyridine-2-carboxylate] | 71 to 73 °C | 100 | 100 | 90 | 100 | 100 | 100 |  |  |  | 
Nc1cc(Oc2cccc(Cl)c2)nc(C(=O)O)c1Cl [Compound 53, 4-amino-3-chloro-6-(3-chlorophenoxy)-pyridine-2-carboxylic acid] | 176 °C | 100 | 100 | 100 |  |  |  | 100 | 0 | 100 | 
CCCCOCCOC(=O)c1nc(Cl)cc(N)c1Cl (hydrate or solvate) [Compound 10, butoxyethyl 4-amino-3,6-dichloropyridine-2-carboxylate] | 64 to 67 °C |  |  |  |  |  |  |  |  |  | 
COc1c(Cl)nc(C(=O)O)c(Cl)c1N [Compound 22, 4-Amino-3,6-dichloro-5-methoxypyridine-2-carboxylic acid] | 154 to 156 °C | 80 | 100 | 90 |  |  |  | 100 | 100 | 100 | 
Nc1cc(Oc2ccccc2)nc(C(=O)O)c1Cl [Compound 48, 4-amino-3-chloro-6-phenoxypyridine-2-carboxylic acid] | 178 °C | 100 | 100 | 60 | 100 | 30 | 100 |  |  |  | 
Nc1cc(Oc2cc(Cl)cc(Cl)c2)nc(C(=O)O)c1Cl [Compound 47, 4-Amino-3-chloro-6-(3,5-dichlorophenoxy)pyridine-2-carboxylic acid] | 196 °C | 100 | 100 | 100 | 0 | 100 | 95 |  |  |  | 
CCCCNc1cc(Cl)nc(C(=O)O)c1Cl [Compound 29, 4-N-butylamino-3,6-dichloropyridine-2-carboxylic acid] | 96 to 97 °C | 95 | 90 | 90 |  |  |  | 100 | 100 | 100 | 
Nc1c(Cl)c(Oc2ccccc2)nc(C(=O)O)c1Cl [Compound 54, 4-Amino-3,5-dichloro-6-phenoxypyridine-2-carboxylic acid] | 158 to 160 °C | 100 | 40 | 0 | 41 | 10 | 50 |  |  |  | 
CCCCC(CC)COC(=O)c1nc(Cl)cc(N)c1Cl (centres unmarked) [Compound 2, 2-Ethylhexyl 4-amino-3,6-dichloropyridine-2-carboxylate] | 55 °C | 95 | 100 | 80 | 100 | 100 | 100 |  |  |  | 
Cc1ccc(Oc2cc(N)c(Cl)c(C(=O)O)n2)cc1 [Compound 50, 4-amino-3-chloro-6-(4-methylphenoxy)-pyridine-2-carboxylic acid] | 173 °C | 60 | 70 | 0 |  |  |  |  |  |  | pest or weed control at 70 ppm ([4]; Ipomoea, 504 h, rate 70 ppm, read-out: % Control IPOHE): 0%; pest or weed control at 70 ppm ([5]; Amaranthus retroflexus, 504 h, rate 70 ppm, read-out: % Control AMARE): 0%; pest or weed control at 70 ppm ([6]; Abutilon theophrasti, 504 h, rate 70 ppm, read-out: % Control ABUTH): 0%
Nc1cc(Br)nc(C(=O)O)c1Br [Compound 17, 4-Amino-3,6-dibromopyridine-2-carboxylic acid] | 205 °C (dec.) | 100 | 100 | 80 |  |  |  | 100 | 100 | 100 | 
O=C(O)c1nc(Cl)cc([N+](=O)[O-])c1Cl [Compound 39, 4-Nitro-3,6-dichloropyridine-2-carboxylic acid] | 192 to 193 °C |  |  |  |  |  |  | 100 | 100 | 100 | pest or weed control at 125 ppm ([1]; Xanthium strumarium, post-emergence, 336 h, rate 125 ppm, read-out: Post-emergent % Control XANST): 85%; pest or weed control at 125 ppm ([2]; Fallopia convolvulus, post-emergence, 336 h, rate 125 ppm, read-out: Post-emergent % Control POLCO): 90%; pest or weed control at 125 ppm ([3]; Stellaria media, post-emergence, 336 h, rate 125 ppm, read-out: Post-emergent % Control STEME): 30%
COC(=O)c1nc(Cl)c([N+](=O)[O-])c(N)c1Cl [Compound 25, Methyl 4-amino-3,6-dichloro-5-nitropyridine-2-carboxylate] | 127 to 128 °C | 60 | 50 | 50 |  |  |  |  |  |  | 
Cc1c(Br)nc(C(=O)O)c(Cl)c1N=[N+]=[N-] [Compound 38, Methyl 4-azido-6-bromo-3-chloropyridine-2-carboxylic acid] | 84 to 86 °C |  |  |  |  |  |  |  |  |  | 
CN(C)C=Nc1cc(Cl)nc(C(=O)O)c1Cl [Compound 40, 4-N,N-Dimethylformamidino-3,6-dichloropyridine-2-carboxylic acid] |  |  |  |  |  |  |  |  |  |  | Post-emergent % Control XANST ([1]; rate 250 ppm): 100%; Post-emergent % Control POLCO ([2]; rate 250 ppm): 100%; Post-emergent % Control STEME ([3]; rate 250 ppm): 90%; % Control IPOHE ([4]; rate 560 ppm): 100%; % Control AMARE ([5]; rate 560 ppm): 100%; % Control ABUTH ([6]; rate 560 ppm): 100%
